Reference: ChEMBL document CHEMBL5576125, “Discovery of Pyrazolopyrazines as Selective, Potent, and Mutant-Active MET Inhibitors with Intracranial Efficacy” (J Med Chem, 2024)

Assays:
[1] = target: Vascular endothelial growth factor receptor 2 (Homo sapiens, UniProt P35968); experiment: Inhibition of VEGFR-2 (unknown origin) by cell based assay; type: toxicity
[2] = target: T1, Hepatocyte growth factor receptor (Homo sapiens, UniProt P08581, D1228N); experiment: Displacement of tracer 236 from N-terminal GST-tagged recombinant human MET D1228N mutant (956 to end residues) expressed in Sf9 insect cells incubated for 1 hr by TR-FRET assay
T1 sequence (P08581 25-1390 D1228N limits assumed): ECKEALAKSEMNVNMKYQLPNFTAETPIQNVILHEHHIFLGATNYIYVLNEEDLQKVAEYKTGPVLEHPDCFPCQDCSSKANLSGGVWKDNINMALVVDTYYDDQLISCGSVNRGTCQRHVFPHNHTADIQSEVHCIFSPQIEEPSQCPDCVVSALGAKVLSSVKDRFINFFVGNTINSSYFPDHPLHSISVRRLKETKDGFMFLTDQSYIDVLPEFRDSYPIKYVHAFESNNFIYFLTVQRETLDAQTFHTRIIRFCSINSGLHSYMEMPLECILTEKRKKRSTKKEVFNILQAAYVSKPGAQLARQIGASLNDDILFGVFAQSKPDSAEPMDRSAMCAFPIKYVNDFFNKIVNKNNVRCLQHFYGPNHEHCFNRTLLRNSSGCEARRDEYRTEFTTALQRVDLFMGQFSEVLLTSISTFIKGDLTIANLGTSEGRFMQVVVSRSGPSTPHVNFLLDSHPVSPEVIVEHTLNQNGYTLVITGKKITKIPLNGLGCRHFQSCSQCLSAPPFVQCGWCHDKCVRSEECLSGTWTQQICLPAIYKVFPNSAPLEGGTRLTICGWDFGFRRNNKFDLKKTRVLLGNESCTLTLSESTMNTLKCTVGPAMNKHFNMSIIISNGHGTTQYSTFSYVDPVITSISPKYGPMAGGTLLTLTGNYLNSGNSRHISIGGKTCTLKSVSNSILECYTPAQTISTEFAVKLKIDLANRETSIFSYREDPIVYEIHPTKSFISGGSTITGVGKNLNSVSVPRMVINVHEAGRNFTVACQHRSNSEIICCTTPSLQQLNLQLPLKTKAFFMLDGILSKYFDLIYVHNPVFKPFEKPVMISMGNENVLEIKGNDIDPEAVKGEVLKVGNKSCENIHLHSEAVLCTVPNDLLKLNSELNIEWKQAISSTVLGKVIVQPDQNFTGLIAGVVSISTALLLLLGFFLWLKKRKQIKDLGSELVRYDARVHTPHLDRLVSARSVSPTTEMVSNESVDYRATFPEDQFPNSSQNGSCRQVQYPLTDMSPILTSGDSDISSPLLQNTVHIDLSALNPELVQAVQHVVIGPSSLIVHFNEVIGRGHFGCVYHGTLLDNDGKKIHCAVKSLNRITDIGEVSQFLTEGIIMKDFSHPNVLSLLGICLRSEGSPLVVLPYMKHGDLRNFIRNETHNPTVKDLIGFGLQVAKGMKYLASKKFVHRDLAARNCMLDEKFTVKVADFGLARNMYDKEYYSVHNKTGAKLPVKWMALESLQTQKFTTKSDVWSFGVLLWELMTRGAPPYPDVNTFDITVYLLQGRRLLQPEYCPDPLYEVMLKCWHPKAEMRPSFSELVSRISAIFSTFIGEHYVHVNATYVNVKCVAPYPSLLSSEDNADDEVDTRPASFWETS

[3] = Displacement of tracer 236 from N-terminal GST-tagged recombinant human MET exon 14 deletion mutant (956 to end residues) expressed in Sf9 insect cells incubated for 1 hr by TR-FRET assay
[4] = target: Hepatocyte growth factor receptor (Homo sapiens, UniProt P08581, F1200I); experiment: Displacement of tracer 236 from N-terminal GST-tagged recombinant human MET F1200I mutant (956 to end residues) expressed in Sf9 insect cells incubated for 1 hr by TR-FRET assay
[5] = Displacement of tracer 236 from N-terminal GST-tagged recombinant human MET […] mutant (956 to end residues) expressed in Sf9 insect cells incubated for 1 hr by TR-FRET assay
[6] = target: Hepatocyte growth factor receptor (Homo sapiens, UniProt P08581, Y1230H); experiment: Displacement of tracer 236 from N-terminal GST-tagged recombinant human MET Y1230H mutant (956 to end residues) expressed in Sf9 insect cells incubated for 1 hr by TR-FRET assay
Hepatocyte growth factor receptor (Homo sapiens, UniProt P08581, Y1230H), sequence (P08581 25-1390 Y1230H limits assumed): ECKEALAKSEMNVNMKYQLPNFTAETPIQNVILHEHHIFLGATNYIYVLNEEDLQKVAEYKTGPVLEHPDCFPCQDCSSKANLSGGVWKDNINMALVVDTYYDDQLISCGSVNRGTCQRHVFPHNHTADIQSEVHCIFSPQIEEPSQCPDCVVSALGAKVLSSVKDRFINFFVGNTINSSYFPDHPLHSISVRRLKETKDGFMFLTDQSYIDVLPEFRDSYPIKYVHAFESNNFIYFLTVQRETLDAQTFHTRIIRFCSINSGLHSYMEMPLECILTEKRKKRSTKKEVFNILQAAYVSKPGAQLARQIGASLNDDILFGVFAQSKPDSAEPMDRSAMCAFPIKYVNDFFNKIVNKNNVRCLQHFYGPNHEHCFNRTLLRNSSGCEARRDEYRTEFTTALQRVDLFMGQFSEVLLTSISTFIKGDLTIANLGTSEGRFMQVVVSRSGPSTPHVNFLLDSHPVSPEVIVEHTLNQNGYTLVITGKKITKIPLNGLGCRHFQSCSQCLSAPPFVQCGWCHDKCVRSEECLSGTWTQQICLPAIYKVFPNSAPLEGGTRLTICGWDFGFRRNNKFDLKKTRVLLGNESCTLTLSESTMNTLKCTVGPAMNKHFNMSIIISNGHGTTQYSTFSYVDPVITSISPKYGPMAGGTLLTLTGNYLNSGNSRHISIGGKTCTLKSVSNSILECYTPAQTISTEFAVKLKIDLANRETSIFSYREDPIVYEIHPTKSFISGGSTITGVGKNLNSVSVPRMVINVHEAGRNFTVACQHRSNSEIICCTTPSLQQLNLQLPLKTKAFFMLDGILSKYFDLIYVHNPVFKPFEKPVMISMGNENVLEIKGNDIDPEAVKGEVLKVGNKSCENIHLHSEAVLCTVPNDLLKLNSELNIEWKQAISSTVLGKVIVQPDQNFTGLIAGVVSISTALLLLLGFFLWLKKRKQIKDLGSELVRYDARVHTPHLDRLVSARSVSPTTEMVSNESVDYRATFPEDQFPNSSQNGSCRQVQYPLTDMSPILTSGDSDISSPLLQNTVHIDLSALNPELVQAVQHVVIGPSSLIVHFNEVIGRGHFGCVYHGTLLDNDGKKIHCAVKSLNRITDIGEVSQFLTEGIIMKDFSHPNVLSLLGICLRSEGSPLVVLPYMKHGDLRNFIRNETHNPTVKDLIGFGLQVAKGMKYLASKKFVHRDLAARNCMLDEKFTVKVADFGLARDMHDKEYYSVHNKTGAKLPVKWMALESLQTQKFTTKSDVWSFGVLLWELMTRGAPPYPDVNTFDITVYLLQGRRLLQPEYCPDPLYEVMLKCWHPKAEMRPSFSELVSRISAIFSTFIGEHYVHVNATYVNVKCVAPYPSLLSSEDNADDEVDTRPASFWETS

[7] = target: T1, Hepatocyte growth factor receptor; experiment: Inhibition of MET D1228N mutant (unknown origin) transfected in mouse NIH3T3 cells incubated for 1 hr by In-Cell Western assay; type: cell-based
[8] = Apparent permeability across apical to basolateral side in MDCKII-MDR1 cells at 1 uM incubated for 2 hrs in orbital shaker by LC-MS/MS analysis; type: ADME, cell-based, Canis lupus familiaris; conditions: dog, MDCK-MDR1
[9] = Metabolic stability in human hepatocytes assessed as clearance at 2 uM measured upto 120 mins by LC-MS/MS analysis; type: ADME, cell-based, Hepatocyte
[10] = Metabolic stability in mouse hepatocytes assessed as clearance at 2 uM measured upto 120 mins by LC-MS/MS analysis; type: ADME, cell-based, Hepatocyte
[11] = Efflux ratio of apparent permeability across basolateral to apical over apical to basolateral side in MDCKII-MDR1 cells at 1 uM incubated for 2 hrs in orbital shaker by LC-MS/MS analysis; type: ADME, cell-based, Canis lupus familiaris; conditions: dog, MDCK-MDR1

Vascular endothelial growth factor receptor 2, sequence (P35968 whole entry): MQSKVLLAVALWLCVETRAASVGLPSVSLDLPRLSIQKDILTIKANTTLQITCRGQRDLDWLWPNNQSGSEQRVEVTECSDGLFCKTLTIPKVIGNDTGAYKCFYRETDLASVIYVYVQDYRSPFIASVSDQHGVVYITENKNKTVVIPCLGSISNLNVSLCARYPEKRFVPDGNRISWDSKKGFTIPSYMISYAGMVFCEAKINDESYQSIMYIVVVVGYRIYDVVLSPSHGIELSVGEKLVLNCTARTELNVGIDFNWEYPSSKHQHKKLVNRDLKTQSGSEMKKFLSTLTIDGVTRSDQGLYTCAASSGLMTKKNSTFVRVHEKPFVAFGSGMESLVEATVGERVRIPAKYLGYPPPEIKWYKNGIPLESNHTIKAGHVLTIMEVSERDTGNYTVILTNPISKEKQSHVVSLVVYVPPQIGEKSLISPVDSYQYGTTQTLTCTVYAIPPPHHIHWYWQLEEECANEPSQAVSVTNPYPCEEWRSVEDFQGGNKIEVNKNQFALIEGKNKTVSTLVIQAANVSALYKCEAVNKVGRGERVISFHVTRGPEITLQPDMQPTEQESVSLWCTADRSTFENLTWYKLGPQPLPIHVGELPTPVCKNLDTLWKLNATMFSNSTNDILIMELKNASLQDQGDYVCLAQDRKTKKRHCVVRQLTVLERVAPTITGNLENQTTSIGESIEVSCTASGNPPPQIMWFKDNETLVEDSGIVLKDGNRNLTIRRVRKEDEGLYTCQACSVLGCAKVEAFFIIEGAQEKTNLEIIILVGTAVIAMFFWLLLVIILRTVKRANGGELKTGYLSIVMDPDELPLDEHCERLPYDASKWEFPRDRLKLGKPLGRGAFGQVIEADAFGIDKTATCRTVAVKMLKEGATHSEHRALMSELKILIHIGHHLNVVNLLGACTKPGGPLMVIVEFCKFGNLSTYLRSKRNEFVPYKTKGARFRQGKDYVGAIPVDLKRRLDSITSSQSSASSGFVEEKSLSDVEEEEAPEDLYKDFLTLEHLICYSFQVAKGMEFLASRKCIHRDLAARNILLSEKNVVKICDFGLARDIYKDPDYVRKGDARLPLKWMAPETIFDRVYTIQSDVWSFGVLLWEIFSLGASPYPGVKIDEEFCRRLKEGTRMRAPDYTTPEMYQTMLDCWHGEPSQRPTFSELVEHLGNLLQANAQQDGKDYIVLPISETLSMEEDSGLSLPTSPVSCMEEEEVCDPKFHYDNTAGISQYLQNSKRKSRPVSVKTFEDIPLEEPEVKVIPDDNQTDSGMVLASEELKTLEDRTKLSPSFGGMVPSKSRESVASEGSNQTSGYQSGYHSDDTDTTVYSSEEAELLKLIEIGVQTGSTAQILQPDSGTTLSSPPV

Row | SMILES | IC50 [1] [µM] | IC50 [2] [µM] | IC50 [3] [µM] | IC50 [4] [µM] | IC50 [5] [µM] | IC50 [6] [µM] | IC50 [7] [µM] | Papp A→B at 2 h, 1 µM [8] [×10⁻⁶ cm/s] | CLhep predicted at 2 µM [9] [mL/min/kg] | CLhep predicted at 2 µM [10] [mL/min/kg] | efflux ratio at 2 h, 1 µM [11]
1 | COCCNCc1ccc(-c2cc3nccc(Oc4ccc(NC(=S)NC(=O)Cc5ccc(F)cc5)cc4F)c3s2)nc1 [GLESATINIB] | 0.172 | – | – | – | – | – | – | – | – | – | –
2 | CO[C@H]1C[C@@H](N(c2cc(F)c(NC(=O)c3ccnn(-c4ccc(F)cn4)c3=O)cc2F)c2cccn3nccc23)C1 | – | 0.007 | 0.004 | 0.171 | 0.046 | 0.006 | 0.039 | – | – | – | –
3 | O=C(Nc1cc(F)c(N(c2cccn3nccc23)C2CCC2)cc1F)c1ccnn(-c2ccc(F)cc2)c1=O | – | 0.024 | 0.016 | 0.222 | 0.057 | 0.03 | 0.158 | – | – | – | –
4 | O=C(Nc1cc(F)c(Oc2cccn3nccc23)cc1F)c1ccnn(-c2ccc(F)cc2)c1=O | – | 0.165 | 0.027 | 5 | 0.717 | 0.084 | 1.68 | – | – | – | –
5 | Cc1cc(N(c2cc(F)c(NC(=O)c3ccnn(-c4ccc(F)cn4)c3=O)cc2F)[C@H]2C[C@H](c3ccn(C)n3)C2)c(F)cn1 | – | 0.006 | – | 0.098 | 0.036 | 0.005 | 0.04 | 15 | 9 | 31 | –
6 | COc1cc(N(c2cc(F)c(NC(=O)c3ccnn(-c4ccc(F)cn4)c3=O)cc2F)[C@H]2C[C@H](c3ccn(C)n3)C2)c2ccnn2c1 | – | 0.011 | 0.016 | 0.054 | 0.032 | 0.017 | 0.022 | – | 12 | 38 | –
7 | CC(C)(C#N)CN(c1cc(F)c(NC(=O)c2ccnn(-c3ccc(F)cc3)c2=O)cc1F)c1cccn2nccc12 | – | 0.008 | – | 0.326 | 0.053 | 0.007 | 0.025 | – | – | – | –
8 | Cc1cc(N(c2nccn3nccc23)[C@H]2C[C@H](c3ccn(C)n3)C2)c(F)cc1NC(=O)c1ccnn(-c2ccc(F)cn2)c1=O | – | 0.01 | – | 0.217 | 0.064 | 0.005 | 0.041 | 4 | 22 | 17 | 0.9
9 | CCN(c1cc(F)c(NC(=O)c2ccnn(-c3ccc(F)cc3)c2=O)cc1F)c1cccn2nccc12 | – | 0.064 | 0.036 | 0.622 | 0.172 | 0.038 | 0.198 | – | – | – | –
10 | Cn1ccc([C@H]2C[C@H](N(c3cc(F)c(NC(=O)c4ccnn(-c5ccc(F)cn5)c4=O)cc3Cl)c3nccn4nccc34)C2)n1 | – | 0.009 | 0.006 | 0.147 | 0.036 | 0.007 | 0.028 | 5 | 9 | 31 | –
